Test [1] addresses T1, human progesterone receptor-A [PRA] isoform (Homo sapiens, UniProt P06401).
T1 construct: host or cells: insect SF21 cells (baculovirus)
T1 sequence (P06401 1-769 isoform P06401-2): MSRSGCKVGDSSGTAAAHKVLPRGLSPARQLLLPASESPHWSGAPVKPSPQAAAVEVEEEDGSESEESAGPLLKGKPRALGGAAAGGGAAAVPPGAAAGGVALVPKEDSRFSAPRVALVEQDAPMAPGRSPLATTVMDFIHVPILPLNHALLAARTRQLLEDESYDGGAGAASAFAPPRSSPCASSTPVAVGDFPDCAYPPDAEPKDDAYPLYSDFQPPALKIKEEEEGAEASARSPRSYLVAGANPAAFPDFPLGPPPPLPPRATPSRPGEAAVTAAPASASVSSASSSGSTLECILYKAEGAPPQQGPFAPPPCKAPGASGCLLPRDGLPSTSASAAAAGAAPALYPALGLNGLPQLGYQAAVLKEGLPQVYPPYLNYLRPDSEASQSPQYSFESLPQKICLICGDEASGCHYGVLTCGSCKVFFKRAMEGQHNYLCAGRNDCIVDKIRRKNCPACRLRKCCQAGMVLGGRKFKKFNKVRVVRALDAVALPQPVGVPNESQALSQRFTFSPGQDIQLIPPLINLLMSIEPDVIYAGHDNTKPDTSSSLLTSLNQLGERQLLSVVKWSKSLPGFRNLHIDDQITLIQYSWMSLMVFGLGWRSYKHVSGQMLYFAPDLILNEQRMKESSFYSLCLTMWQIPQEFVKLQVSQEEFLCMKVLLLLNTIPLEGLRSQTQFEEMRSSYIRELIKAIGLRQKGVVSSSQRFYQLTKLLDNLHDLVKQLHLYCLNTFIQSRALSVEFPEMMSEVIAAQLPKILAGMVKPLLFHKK
Kind of test: Radioligand binding with human progesterone receptor cytosol ([3H]-progesterone competition).

Test [2] has as its target T2, human glucocorticoid receptor-α [GRX] isoform (Homo sapiens, UniProt P04150).
T2 construct: host or cells: insect SF21 cells (baculovirus)
T2 sequence (P04150 1-777): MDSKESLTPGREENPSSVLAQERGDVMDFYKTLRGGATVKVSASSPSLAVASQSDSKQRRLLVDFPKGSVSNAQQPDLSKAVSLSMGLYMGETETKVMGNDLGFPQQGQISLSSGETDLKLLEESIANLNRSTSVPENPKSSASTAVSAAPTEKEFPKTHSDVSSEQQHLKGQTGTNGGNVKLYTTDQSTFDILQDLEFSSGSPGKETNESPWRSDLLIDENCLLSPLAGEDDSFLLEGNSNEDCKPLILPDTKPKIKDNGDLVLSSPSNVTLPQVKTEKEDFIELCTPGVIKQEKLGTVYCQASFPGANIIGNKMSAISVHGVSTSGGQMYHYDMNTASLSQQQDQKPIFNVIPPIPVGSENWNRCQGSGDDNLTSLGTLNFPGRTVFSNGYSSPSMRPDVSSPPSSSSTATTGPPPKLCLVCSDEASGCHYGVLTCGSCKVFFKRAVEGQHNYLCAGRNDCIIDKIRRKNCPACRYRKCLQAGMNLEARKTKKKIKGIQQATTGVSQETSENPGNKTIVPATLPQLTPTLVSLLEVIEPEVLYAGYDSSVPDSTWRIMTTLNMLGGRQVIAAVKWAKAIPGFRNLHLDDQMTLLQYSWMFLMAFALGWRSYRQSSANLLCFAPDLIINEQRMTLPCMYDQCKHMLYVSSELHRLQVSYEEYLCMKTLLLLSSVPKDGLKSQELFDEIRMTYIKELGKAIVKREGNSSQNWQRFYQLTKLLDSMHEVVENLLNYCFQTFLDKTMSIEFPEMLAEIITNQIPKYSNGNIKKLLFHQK
The test is described as follows: Radioligand binding with human glucocorticoid receptor cytosol ([3H]-dexamethasone competition).

[3] abbreviates: PRA cytosol expressed in insect SF21 cells, [3H]Prog ~0.8 nM, 4° C. overnight, Ki by Cheng-Prusoff, KL ~4.5 nM, read-out: Ki (nM) PR.
Where [4] appears, read: GRX cytosol expressed in insect SF21 cells, [3H]-Dex ~0.9 nM, 4° C. overnight, Ki by Cheng-Prusoff, KL ~[…], read-out: Ki (nM) GR.

This is an account of results in patent US6506766B1 (Abbott Laboratories, priority 1998, dated 2003).

Each structure is given as a SMILES string. Read-outs that look alike come from different tables or passages of the source.

Turning to `CCCCCCOc1cccc(C2Oc3cccc(OC)c3-c3ccc4c(c32)C(C)=CC(C)(C)N4)c1` (stereo not drawn) [Example 90, 5-(3-Hexyloxyphenyl)-2,5-dihydro-10-methoxy-2,2,4-trimethyl-1H-[1]benzopyrano[3,4-f]quinoline], the figures for the inhibitory constant (Ki) in test [1] (setting [3]) and in test [2] (setting [4]) were not below 10000 nM and 7.6 nM, respectively.

For `COc1cccc2c1-c1ccc3c(c1C(c1cccc(Oc4ccc([N+](=O)[O-])cc4[N+](=O)[O-])c1)O2)C(C)=CC(C)(C)N3` (stereo not drawn) [Example 91, 5-[3-(2,4-Dinitrophenoxy)phenyl]-2,5-dihydro-10-methoxy-2,2,4-trimethyl-1H-[1]benzopyrano[3,4-f]quinoline], the Ki in test [1] (setting [3]) was not below 10000 nM; in test [2] (setting [4]), 17 nM.

As for `COc1cccc2c1-c1ccc3c(c1C(c1cccc(OS(=O)(=O)c4ccc(C)cc4)c1)O2)C(C)=CC(C)(C)N3` (stereo not drawn) [Example 93, 3-(2,5-Dihydro-10-methoxy-2,2,4-trimethyl-1H-[1]benzopyrano[3,4-f]quinolin-5-yl)phenol 4-Methylbenzenesulfonate (Ester)], the Ki is not below 10000 nM in test [1] (setting [3]) and 148 nM in test [2] (setting [4]).

Turning to `COc1cccc2c1-c1ccc3c(c1C(c1ccc(OC(C)=O)cc1)O2)C(C)=CC(C)(C)N3` (stereo not drawn) [Example 94, 4-(2,5-Dihydro-10-methoxy-2,2,4-trimethyl-1H-[1]benzopyrano[3,4-f]quinolin5-yl)phenolacetate (Ester)], the results for the Ki in test [1] (setting [3]) and in test [2] (setting [4]) were not below 10000 nM and 43 nM, respectively.

On to `COc1cccc2c1-c1ccc3c(c1C(c1ccc(O)cc1)O2)C(C)=CC(C)(C)N3` (stereo not drawn) [Example 95, 4-(2,5-Dihydro-10-methoxy-2,2,4-trimethyl-1H-[1]benzopyrano[3,4-f]quinolin-5-yl)phenol], for which the Ki in test [1] (setting [3]) was not below 10000 nM; in test [2] (setting [4]) it was 31 nM.

As for `COc1cccc2c1-c1ccc3c(c1C(c1ccc(OCSC)cc1)O2)C(C)=CC(C)(C)N3` (stereo not drawn) [Example 96, 2,5-Dihydro-10-methoxy-2,2,4-trimethyl-5-[[4-(methylthio)methoxy]phenyl]-1H-[1]benzopyrano[3,4-f]quinoline], the inhibition constant Ki in test [1] (setting [3]) turned out to be 9160 nM; in test [2] (setting [4]), 10 nM.

In the case of `COc1cccc2c1-c1ccc3c(c1C(c1ccc(OC(=O)N(C)C)cc1)O2)C(C)=CC(C)(C)N3` (stereo not drawn) [Example 97, [4-(2,5-Dihydro-10-methoxy-2,2,4-trimethyl-1H-1benzopyrano[3,4-f]quinolin-5-yl)phenyl]dimethylcarbamate], the Ki in test [1] (Ki (nM) PR) was not below 10000 nM; in test [2] (Ki (nM) GR), 320 nM.

Take `COc1cccc2c1-c1ccc3c(c1C(c1ccc(OCc4ccccc4)cc1)O2)C(C)=CC(C)(C)N3` (stereo not drawn) [Example 98, 2,5-Dihydro-10-methoxy-2,2,4-trimethyl-5-[4-(phenylmethoxy)phenyl]-1H-[1]benzopyranol[3,4-f]quinoline]: the Ki was not below 10000 nM in test [1] (setting [3]) and 9.8 nM in test [2] (setting [4]).

Regarding `COCOc1cccc(C2Oc3cccc(OC)c3-c3ccc4c(c32)C(C)=CC(C)(C)N4)c1` (stereo not drawn) [Example 99], the Ki was not below 10000 nM in test [1] (setting [3]) and 3.6 nM in test [2] (setting [4]).

As to `COc1cccc2c1-c1ccc3c(c1C(c1cccc(OC(=O)N4CCOCC4)c1)O2)C(C)=CC(C)(C)N3` (stereo not drawn) [Example 100, [(2,5-Dihydro-10-methoxy-2,2,4-trimethyl-1H-[1]benzopyrano[3,4-f]quinolin-5-yl)phenyl]1-morpholinecarboxylate], the Ki in test [1] (setting [3]) is not below 10000 nM; in test [2] (setting [4]), 7.8 nM.

Take `COc1cccc2c1-c1ccc3c(c1C(c1cccc(OC[S+](C)[O-])c1)O2)C(C)=CC(C)(C)N3` (stereo not drawn) [Example 101, 2,5-Dihydro-10-methoxy-2,2,4-trimethyl-5-[3-[(methylsulfinyl)methoxy]phenyl]-1H-[1]benzopyrano[3,4-f]quionline]: the Ki in test [1] (setting [3]) is not below 10000 nM; in test [2] (setting [4]) it was 11.4 nM.

With `COc1cccc2c1-c1ccc3c(c1C(c1cccc(SC)c1)O2)C(C)=CC(C)(C)N3` (stereo not drawn) [Example 103], the Ki in test [1] (setting [3]) is not below 10000 nM; in test [2] (setting [4]), 5.2 nM.

For `COC(=S)Oc1cccc(C2Oc3cccc(OC)c3-c3ccc4c(c32)C(C)=CC(C)(C)N4)c1` (stereo not drawn) [Example 104, O-[3-(2,5-Dihydro-10-methoxy-2,2,4-trimethyl-1H-[1]benzopyrano[3,4-f]quinolin-5-yl)phenyl]methylcarbonothioate], the Ki in test [1] (setting [3]) was not below 10000 nM; in test [2] (setting [4]) it was 8.9 nM.

For the compound `COc1cccc2c1-c1ccc3c(c1C(c1cccc(OS(=O)(=O)C(F)(F)F)c1)O2)C(C)=CC(C)(C)N3` (stereo not drawn) [Example 105], the results for the Ki in test [1] (setting [3]) and in test [2] (setting [4]) were more than 10000 nM and 9 nM, respectively.

With `COc1cccc2c1-c1ccc3c(c1C(c1cccc(C4=NC(C)(C)CO4)c1)O2)C(C)=CC(C)(C)N3` (stereo not drawn) [Example 106], the Ki in test [1] (setting [3]) is more than 10000 nM; in test [2] (setting [4]), 62 nM.

Turning to `CCOC(=O)c1cccc(C2Oc3cccc(OC)c3-c3ccc4c(c32)C(C)=CC(C)(C)N4)c1` (stereo not drawn) [Example 107], the Ki was more than 10000 nM in test [1] (setting [3]) and 215 nM in test [2] (setting [4]).

Take `COc1cccc2c1-c1ccc3c(c1C(c1cccc(C(=O)O)c1)O2)C(C)=CC(C)(C)N3` (stereo not drawn) [Example 108, 3-(2,5-Dihydro-10-methoxy-2,2,4-trimethyl-1H-[1]benzopyrano[3,4-f]quinolin-5-yl)benzoic Acid]: the values for the inhibition constant Ki in test [1] (setting [3]) and in test [2] (setting [4]) were more than 10000 nM and 638 nM, respectively.

As to `C=CCc1cc(C)cc(C2Oc3cccc(OC)c3-c3ccc4c(c32)C(C)=CC(C)(C)N4)c1` (stereo not drawn) [Example 109, 2,5-Dihydro-10-methoxy-2,2,4-trimethyl-5-[3-methyl-5-(2-propenyl)phenyl]-1H-[1]benzopyrano[3,4-f]quinoline], the Ki in test [1] (setting [3]) was not below 10000 nM; in test [2] (setting [4]) it was 6.1 nM.

As for `COc1cccc2c1-c1ccc3c(c1C(c1cc(C)cc(C(C)=O)c1)O2)C(C)=CC(C)(C)N3` (stereo not drawn) [Example 110, 1-[3-(2,5-Dihydro-10-methoxy-2,2,4-trimethyl-1H-[1]benzopyrano[3,4-f]quinolin-5-yl)-5-methylphenyl]ethanone], the Ki in test [1] (setting [3]) is not below 10000 nM; in test [2] (setting [4]) it was 5.6 nM.

Take `COc1cccc2c1-c1ccc3c(c1C(c1cc(C)cc(C(C)(C)O)c1)O2)C(C)=CC(C)(C)N3` (stereo not drawn) [Example 111, 3-(2,5-Dihydro-10-methoxy-2,2,4-trimethyl-1H-[1benzopyrano3,4-f]quinolin-5-yl)5-trimethylbenzenemethanol]: the inhibition constant (Ki) in test [1] (setting [3]) was not below 10000 nM; in test [2] (setting [4]) it was 7.2 nM.

Turning to `COc1cccc2c1-c1ccc3c(c1C(c1cccc(-c4ccco4)c1)O2)C(C)=CC(C)(C)N3` (stereo not drawn) [Example 112, 5-[3-(2-Furanyl)phenyl]-2,5-dihydro-10-methoxy-2,2,4-trimethyl-1H-[1]benzopyrano[3,4-f]quinoline], the figures for the Ki in test [1] (setting [3]) and in test [2] (setting [4]) were not below 10000 nM and 31 nM, respectively.

Take `COc1cccc2c1-c1ccc3c(c1C(c1cc(C)cc(N4CCCC4)c1)O2)C(C)=CC(C)(C)N3` (stereo not drawn) [Example 113, 2,5-Dihydro-10-methoxy-2,2,4-trimethyl-5-[3-methyl-5-(1H-pyrrolidin-1-yl)phenyl]1H-[1]benzopyrano[3,4-f]quinoline]: the Ki in test [1] (setting [3]) is not below 10000 nM; in test [2] (setting [4]), 9.7 nM.

Take `C=CCNc1cc(C)cc(C2Oc3cccc(OC)c3-c3ccc4c(c32)C(C)=CC(C)(C)N4)c1` (stereo not drawn) [Example 115]: the figures for the Ki in test [1] (setting [3]) and in test [2] (setting [4]) were not below 10000 nM and 17 nM, respectively.

As for `COCCNc1cc(C)cc(C2Oc3cccc(OC)c3-c3ccc4c(c32)C(C)=CC(C)(C)N4)c1` (stereo not drawn) [Example 116, 3-(2,5-Dihydro-10-methoxy-2,2,4-trimethyl-1H-[1]benzopyrano[3,4-f]quinolin-5-yl)-N-(2-methoxyethyl)-5-methylbenamine], the Ki in test [1] (setting [3]) was not below 10000 nM; in test [2] (setting [4]), 7.2 nM.

By Ki is commonly meant the dissociation constant of the complex between target and ligand, obtained from inhibition or displacement.
